{"source": "patent US11660289B2", "about": "(Small Pharma Ltd, priority 2020, dated 2023)", "key": {"[1]": {"conditions": "cited from earlier work"}, "[2]": {"test": "Human liver mitochondrial fraction intrinsic clearance", "type": "in vitro ADME", "conditions": "0.5 mg/mL human liver mitochondrial fraction", "description": "Human Liver Mitochondrial (HLMt) fractions contain high quantities of MAO enzymes and therefore, provide a useful model system to measure the clearance of MAO substrates.\nA series of investigations using HLMts were conducted to assess the effect of MAO on the metabolism of DMT and deuterated DMT analogues in vitro."}, "[3]": {"test": "In vivo pharmacokinetic profile after IV and IM dosing in rats"}, "Rat hepatocytes": {"tested_on": "Rat hepatocytes", "test": "Rat hepatocyte stability of D0, D6 and D8 5-MeO-DMT analogues", "type": "in vitro ADME", "conditions": "for Fold change from 5-MeO-DMT, CLint / Fold change from 5-MeO-DMT, t1/2: Rat hepatocytes; for Qualified CLint (μL/min/10^6 cells) / Qualified t1/2: cryopreserved pooled rat hepatocytes, 0.5×10^6 viable cells/mL, 60 min", "description": "(§1) Test compounds (5 μM) were incubated with cryopreserved hepatocytes in suspension. Samples were removed at 6 time points over the course of a 60 min experiment and test compounds were analysed by LC-MS/MS.\n(§2) The final incubation volume was 500 μL.\n(§3) Two control compounds were included with each species. Each compound was incubated for 0, 5, 10, 20, 40 and 60 min at 37° C. The reactions were stopped by transferring incubate into acetonitrile at the appropriate time points, in a 1:3 ratio. The termination plates were centrifuged at 3,000 rpm for 30 min at 4° C. to precipitate the protein.\n(§4) Following protein precipitation, the sample supernatants were combined in cassettes of up to 4 compounds, internal standard was added and samples analysed using Cyprotex generic LC-MS/MS conditions.\n(§5) From a plot of ln peak area ratio (compound peak area/internal standard peak area) against time, the gradient of the line is determined. Subsequently, half-life (t½) and intrinsic clearance (CLint) were calculated using the equations below:\n(§6) Elimination rate constant (k)=(−gradient)\n(§7) where V=Incubation volume (μL)/Number of cells"}, "Human hepatocytes": {"tested_on": "Human hepatocytes", "test": "Human hepatocyte stability of D0, D6 and D8 5-MeO-DMT analogues", "type": "in vitro ADME", "conditions": "for Fold change from 5-MeO-DMT, CLint / Fold change from 5-MeO-DMT, t1/2: Human hepatocytes; for Qualified CLint (μL/min/10^6 cells) / Qualified t1/2: cryopreserved pooled human hepatocytes, 0.5×10^6 viable cells/mL, 60 min", "description": "as §1, §2, §3, §4, §5, §6, §7"}, "[4]": {"test": "Human half-life and clearance of DMT calculated from modelled literature data", "conditions": "in vivo; for clearance: read-out: clearance rate", "source_text": "DMT is metabolised very quickly in the human body. […] Based on these calculations, we reasoned that DMT is largely metabolised before reaching the human liver."}, "[5]": {"conditions": "in vivo; cited from earlier work"}, "[6]": {"test": "Rat hepatocyte stability of D0, D6 and D8 5-MeO-DMT analogues", "type": "in vitro ADME", "conditions": "cryopreserved pooled rat hepatocytes, 0.5×10^6 viable cells/mL, 60 min; for half-life at 1 μM: cryopreserved pooled rat hepatocytes in suspension, read-out: Qualified t1/2; for hepatocyte CLint at 1 μM: read-out: Qualified CLint (μL/min/10^6 cells)", "description": "as §1, §2, §3, §4, §5, §6, §7"}, "[7]": {"test": "Human hepatocyte stability of D0, D6 and D8 5-MeO-DMT analogues", "type": "in vitro ADME", "conditions": "cryopreserved pooled human hepatocytes in suspension, cryopreserved pooled human hepatocytes, 0.5×10^6 viable cells/mL, 60 min; for hepatocyte CLint: read-out: Qualified CLint (μL/min/10^6 cells); for half-life: read-out: Qualified t1/2", "description": "as §1, §2, §3, §4, §5, §6, §7"}, "[8]": {"tested_on": "Human (mixed gender) hepatocytes", "test": "Human hepatocyte intrinsic clearance of DMT and deuterated DMT analogues", "experimental": "Standard final incubation conditions are 1 μM compound in buffer containing nominally ˜0.5 million viable cells/mL, ˜0.9% (v/v) acetonitrile (MeCN) and ˜0.1% (v/v) DMSO (specific assay concentrations outlined above, section 2).\nSamples are then centrifuged at 4 oc."}, "[9]": {"conditions": "calculated from modelled data of Timmermann et al."}}, "note": "Read-outs that look alike come from different tables or passages of the source."}
{"molecule": "CNCCc1c[nH]c2ccccc12", "note": "[NMT, N-Methyltryptamine]", "values": [{"measurement": "duration of “visuals”", "setting": "[1]; smoking, 50-100 mg", "result": "15 to 30", "unit": "s"}]}
{"molecule": "[2H]C([2H])([2H])N(C([2H])([2H])[2H])C([2H])([2H])Cc1c[nH]c2ccccc12", "note": "[SPL028viii, α,α,bis-deuterio-N,N-hexadeuterio-dimethyltryptamine]", "values": [{"measurement": "Intrinsic Clearance (μL/min/mg protein)", "setting": "[2]", "result": 10.9, "unit": "μL/min/mg protein"}, {"measurement": "Overall exposure compared with DMT (SPL026)", "setting": "[3]; rat plasma, following IV and IM dosing (FIGS. 1 to 3)", "result": "greater overall exposure"}, {"measurement": "Total systemic exposure (mean AUC0-inf) compared to SPL026", "setting": "[3]; rats, equivalent single IV and IM doses, ANOVA", "result": "significantly higher total systemic exposure"}, {"measurement": "Cmax compared with DMT (SPL026)", "setting": "[3]; rats, following IM dosing", "result": "significantly higher"}]}
{"molecule": "[2H]C([2H])([2H])N(CCc1c[nH]c2ccc(OC)cc12)C([2H])([2H])[2H]", "note": "[Compound D6-5MeO-DMT, d6-5-Methoxydimethyltryptamine]", "values": [{"measurement": "Fold change from 5-MeO-DMT, CLint", "setting": "Rat hepatocytes", "result": 1.5, "unit": "fold"}, {"measurement": "Fold change from 5-MeO-DMT, t1/2", "setting": "Rat hepatocytes", "result": 1.5, "unit": "fold"}, {"measurement": "Qualified CLint (μL/min/10^6 cells)", "setting": "Rat hepatocytes", "result": 205.5, "unit": "μL/min/10^6 cells"}, {"measurement": "Qualified t1/2", "setting": "Rat hepatocytes", "result": 6.76, "unit": "min"}, {"measurement": "Fold change from 5-MeO-DMT, CLint", "setting": "Human hepatocytes", "result": 1.2, "unit": "fold"}, {"measurement": "Fold change from 5-MeO-DMT, t1/2", "setting": "Human hepatocytes", "result": 1.2, "unit": "fold"}, {"measurement": "Qualified CLint (μL/min/10^6 cells)", "setting": "Human hepatocytes", "result": 85.7, "unit": "μL/min/10^6 cells"}, {"measurement": "Qualified t1/2", "setting": "Human hepatocytes", "result": 16.2, "unit": "min"}]}
{"molecule": "CN(C)CCc1c[nH]c2ccccc12", "note": "[SPL026, N,N-dimethyltryptamine]", "values": [{"measurement": "Intrinsic Clearance (μL/min/mg protein)", "setting": "[2]", "result": 161.0, "unit": "μL/min/mg protein"}, {"measurement": "half-life", "setting": "[2]", "result": 8.6, "unit": "min"}, {"measurement": "clearance", "setting": "[4]; based on a 70 kg person", "result": 21, "unit": "L/h/kg"}, {"measurement": "half-life", "setting": "[4]; [9]", "result": "~5", "unit": "min"}, {"measurement": "clearance", "setting": "[4]; [9]", "result": 24500, "unit": "mL/min"}, {"measurement": "duration of action", "setting": "[1]; in vivo", "result": "under 20 minutes"}, {"measurement": "Difference in AUC0-inf between male and female groups", "setting": "[3]; rats, 2 mg/kg IV fumarate", "result": "no significant difference"}]}
{"molecule": "[2H]C([2H])(c1c[nH]c2ccccc12)C([2H])([2H])N(C)C", "note": "[Compound D4DMT, α,α,β,β-tetradeuterio-DMT]", "values": [{"measurement": "onset and behaviour disrupting effects compared to equal doses of DMT", "setting": "[5]", "result": "shorter time to onset and potentiation of behaviour disrupting effects"}]}
{"molecule": "COc1ccc2[nH]cc(CCN(C)C)c2c1", "note": "[Compound 5-MeO-DMT, 5-Methoxy-N,N-dimethyltryptamine]", "values": [{"measurement": "half-life at 1 μM", "setting": "[6]", "result": 4.46, "unit": "min"}, {"measurement": "hepatocyte CLint at 1 μM", "setting": "[6]", "result": 312, "unit": "µL/min/1e6 cells"}, {"measurement": "hepatocyte CLint", "setting": "[7]", "result": 104, "unit": "µL/min/1e6 cells"}, {"measurement": "half-life", "setting": "[7]", "result": 13.3, "unit": "min"}]}
{"molecule": "NCc1ccccc1", "note": "[Benzylamine, benzylamine]", "values": [{"measurement": "Intrinsic Clearance (μL/min/mg protein)", "setting": "[2]", "result": 60.0, "unit": "μL/min/mg protein"}, {"measurement": "half-life", "setting": "[2]", "result": 23.2, "unit": "min"}]}
{"molecule": "NCCc1c[nH]c2ccc(O)cc12", "note": "[Serotonin, serotonin]", "values": [{"measurement": "Intrinsic Clearance (μL/min/mg protein)", "setting": "[2]", "result": 151.0, "unit": "μL/min/mg protein"}, {"measurement": "half-life", "setting": "[2]", "result": 9.2, "unit": "min"}]}
{"molecule": "d8-5-Methoxydimethyltryptamine [Compound D8-5MeO-DMT]", "values": [{"measurement": "Fold change from 5-MeO-DMT, CLint", "setting": "Rat hepatocytes", "result": 1.8, "unit": "fold"}, {"measurement": "Fold change from 5-MeO-DMT, t1/2", "setting": "Rat hepatocytes", "result": 1.8, "unit": "fold"}, {"measurement": "Qualified CLint (μL/min/10^6 cells)", "setting": "Rat hepatocytes", "result": 176.0, "unit": "μL/min/10^6 cells"}, {"measurement": "Qualified t1/2", "setting": "Rat hepatocytes", "result": 7.89, "unit": "min"}, {"measurement": "Fold change from 5-MeO-DMT, CLint", "setting": "Human hepatocytes", "result": 1.8, "unit": "fold"}, {"measurement": "Fold change from 5-MeO-DMT, t1/2", "setting": "Human hepatocytes", "result": 1.8, "unit": "fold"}, {"measurement": "Qualified CLint (μL/min/10^6 cells)", "setting": "Human hepatocytes", "result": 57.6, "unit": "μL/min/10^6 cells"}, {"measurement": "Qualified t1/2", "setting": "Human hepatocytes", "result": 24.3, "unit": "min"}]}
{"molecule": "O=C(c1ccc(OCCN2CCCCC2)cc1)c1c(-c2ccc(O)cc2)sc2cc(O)ccc12", "note": "[Raloxifene]", "values": [{"measurement": "half-life at 1 μM", "setting": "[6]", "result": 11.1, "unit": "min"}, {"measurement": "hepatocyte CLint at 1 μM", "setting": "[6]", "result": 125, "unit": "µL/min/1e6 cells"}, {"measurement": "hepatocyte CLint", "setting": "[7]", "result": 152, "unit": "µL/min/1e6 cells"}, {"measurement": "half-life", "setting": "[7]", "result": 9.13, "unit": "min"}]}
{"molecule": "[2H]C([2H])([2H])N(CCc1c[nH]c2ccccc12)C([2H])([2H])[2H]", "note": "[SPL028vii, N,N-hexadeuterio-dimethyltryptamine]", "values": [{"measurement": "Intrinsic clearance of SPL026 minus intrinsic clearance of SPL028vii", "setting": "[8]", "result": 2.3, "unit": "μL/min/million cells"}]}
